Test results from paper PMC10906223 (JCI Insight, 2024).
Where “and” joins values, the source holds several entries; their conditions need not be identical. Equal entries are not always repeated. Where two headings read alike, the source gives them in different places.

Legend:
[1] = biological target: T1, EphA4 receptor (Mus musculus, UniProt Q03137); assay: ELISA: competition between WCDD301 and Ephrin-A5 Fc for binding to EphA4; details: for Bound Ephrin (WCDD301, 0.01 µM) / Bound Ephrin (WCDD301, 0.1 µM) / Bound Ephrin (WCDD301, 1 µM): Figure 1E; for Bound Ephrin-A5 (ELISA signal) / AUC of competition curve: Figure 1D; for AUC of competition curve: EphA4 3 μg/mL, mean ± SD
T1 construct: purchased R&D Systems 641-A4-200
Procedure: (§1) Wells of the protein A–coated microplate (Pierce, catalog 15132) were washed using 200 μL of binding buffer (PBS supplemented by 0.01% Tween 20). Recombinant mouse EphA4 Fc chimera protein (R&D Systems, catalog 641-A4-200) was reconstituted in 1× PBS (Genesee, catalog 25-507XB, pH 7.2 ± 0.1), diluted to 3 μg/mL using binding buffer, dispensed (100 μL) in each well, and rocked on a belly dancer shaker (3 hours at room temperature, RT). Following 3 washes in the binding buffer, blocking was done using blocking buffer (5% BSA in binding buffer) for 3 hours at RT. Then, after 5 washes, the reconstituted recombinant mouse Ephrin-A5 Fc (R&D Systems, catalog 7396-EA-050) was added (100 μL) into each well and rocked for 2.5 hours on the shaker (Ephrin-A5 Fc concentrations were used as described in the Results section). After 7 washes using binding buffer, alkaline phosphatase–conjugated antibody against Ephrin-A5 was diluted (1:1,000) in the binding buffer plus 2% BSA, added to each well, and incubated at 4°C, overnight. Conjugation of the anti-EFNA5 antibody (Abnova, catalog H00001946-M02; 0.5 mg/mL; target sequence 114–203) was done using Abcam conjugation kit (catalog ab102850) based on the manufacturer’s instruction. After washing 7 times, p-nitrophenyl phosphate tablet (MilliporeSigma, catalog N1891) was reconstituted in 5 mL of PBS and added to each well (100 μL). Following 1 hour shaking at RT in the dark, reaction was stopped by adding 100 μL of 3N NaOH. OD was read at 405 nm within 5 minutes using the microplate reader (Agilent BioTek Cytation 5).
We took following the approaches to assay competition between Ephrin-A5 and WCDD301 for binding to the EphA4 receptor. Wells of the microplate were coated by a fixed level of EphA4 Fc (3.5 pmol/well), and competition experiments with Ephrin-A5 and WCDD301 were performed as listed in Supplemental Tables 3 and 4. We determined the KD value for each condition by means of Michaelis-Menten best fit analysis in GraphPad Prism software version 4. To control for potential interaction between WCDD301 and Ephrin-A5 Fc, we coated wells of a microplate using Ephrin-A5 Fc and then incubated them with or without WCDD301 (0.2 μM).

[2] = tested on: primary mouse hepatocytes; assay: Glucose output from primary mouse hepatocytes; type: cell-based
Procedure: Primary hepatocyte culture was performed following previous publications ([63], [64]). Briefly, livers were extracted from C57BL/6J (n = 5), rinsed in HBSS, and minced. The minced tissue was treated with collagenase P solution (9 μg/mL) neutralized by DMEM containing 10% FBS. Following settling of undigested tissue, the supernatant was collected and centrifuged at 490g for 1 minute. The pellet was treated with red blood cell lysis buffer (8.26 g NH4Cl, 1 g NaHCO3, 0.037 g Na2EDTA in 1,000 mL of distilled water) for 3 minutes, diluted with HBSS containing 6% FBS, and centrifuged at 490g for 1 minute. The resulting pellet was washed 2 times using HBSS containing 6% FBS (290g, 1 minute, and 190g, 1 minute) and resuspended in HBSS containing 2% FBS. The procedure was repeated 2 additional times on the undigested tissue. The collected suspension was sequentially filtered through a 500 μm Steel Basket-Strainer (pluriSelect) and Falcon 100 µm Cell Strainer (Corning). After centrifugation (190g, 1 minute), the pellet was resuspended in DMEM (containing 10% FBS, 100 U/mL penicillin, and 100 μg/mL streptomycin), seeded in a 48-well cell culture plate (7.5 × 10^5 cells/ well), and incubated in a cell culture incubator, overnight. Cell viability and attachment were determined by trypan blue staining.

[3] = biological target: T1, EphA4 receptor; assay: ELISA: binding affinity (Ki) of WCDD301 for EphA4 via bound Ephrin-A5 Fc; set-up: Bound Ephrin (0.1 µM-WCDD301) / Bound Ephrin, raw data: unit not given here; details: for Bound Ephrin (0.1 µM-WCDD301): replicates, Figure 1B
Procedure: as §1
As a control, Fc fragment (BioLegend, catalog 790102) was incubated and used for normalization of data. […] Then, Ki was determined via an approach called finding Ki without global fitting ([58]) by using the following formula: […]
This approach provided a Km value for […] and an estimate for its binding affinity, Ki. To further verify this finding, experiments were designed in the context of 8 nM Ephrin-A5 to determine bound levels of Ephrin-A5 in the presence of WCDD301 (0, 0.1, 0.4, 0.8, and 1.6 μM). Data were normalized and fit by nonlinear regression in GraphPad Prism software version 4 to determine IC50. Then, by using the Cheng-Prusoff equation

[4] = WCDD301 0.1 µM, 8 nM Ephrin-A5, Figure 1C

T1 sequence (Q03137 with tags, fused parts or gaps limits assumed): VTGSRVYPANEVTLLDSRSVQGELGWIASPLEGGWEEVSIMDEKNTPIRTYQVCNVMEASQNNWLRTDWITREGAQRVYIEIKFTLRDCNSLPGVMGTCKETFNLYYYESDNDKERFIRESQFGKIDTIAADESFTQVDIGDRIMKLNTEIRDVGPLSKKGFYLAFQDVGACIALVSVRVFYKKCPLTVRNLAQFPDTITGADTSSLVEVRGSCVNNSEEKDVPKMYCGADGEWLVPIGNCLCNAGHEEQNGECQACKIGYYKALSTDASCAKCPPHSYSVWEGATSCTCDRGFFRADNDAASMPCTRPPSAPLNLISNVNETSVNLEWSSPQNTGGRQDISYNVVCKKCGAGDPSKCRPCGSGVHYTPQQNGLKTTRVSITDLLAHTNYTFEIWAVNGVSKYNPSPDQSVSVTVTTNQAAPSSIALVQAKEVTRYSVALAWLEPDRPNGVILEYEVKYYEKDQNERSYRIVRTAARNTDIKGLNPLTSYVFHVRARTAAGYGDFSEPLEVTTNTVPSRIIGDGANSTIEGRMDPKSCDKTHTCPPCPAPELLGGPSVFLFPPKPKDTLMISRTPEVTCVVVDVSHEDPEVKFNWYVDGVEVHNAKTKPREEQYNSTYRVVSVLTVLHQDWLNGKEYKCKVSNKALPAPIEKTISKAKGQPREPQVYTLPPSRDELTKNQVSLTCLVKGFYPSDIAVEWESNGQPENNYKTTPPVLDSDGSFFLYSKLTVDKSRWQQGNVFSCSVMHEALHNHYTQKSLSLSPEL

For `CC(=O)OCC(N)(COC(C)=O)COC(C)=O` [WCDD301, 2-(acetoxymethyl)-2-aminopropane-1,3-diyl diacetate], the “Competition with Ephrin-A5 for EphA4” value ([1]; AUC analysis) was “competes with the natural ligand, Ephrin-A5”, the “Bound Ephrin (WCDD301, 0.01 µM)” value ([1]; Ephrin-A5 Fc 2 nM) was 0.051 and 0.05 and 0.052 and the “Bound Ephrin (WCDD301, 0.1 µM)” value ([1]; Ephrin-A5 Fc 2 nM) was 0.05 and 0.06. The “Bound Ephrin (WCDD301, 1 µM)” value ([1]; Ephrin-A5 Fc 2 nM) was 0.03 and 0.04, the “Bound Ephrin (WCDD301, 0.01 µM)” value ([1]; Ephrin-A5 Fc 4 nM) was 0.061 and 0.07 and 0.064 and the “Bound Ephrin (WCDD301, 0.1 µM)” value ([1]; Ephrin-A5 Fc 4 nM) was 0.062 and 0.064 and 0.07. For the same molecule, the “Bound Ephrin (WCDD301, 1 µM)” value ([1]; Ephrin-A5 Fc 4 nM) was 0.04 and 0.05, the “Bound Ephrin (WCDD301, 0.01 µM)” value ([1]; Ephrin-A5 Fc 8 nM) was 0.142 and 0.122 and 0.156 and the “Bound Ephrin (WCDD301, 0.1 µM)” value ([1]; Ephrin-A5 Fc 8 nM) was 0.119 and 0.121 and 0.098. For the same molecule, the “Bound Ephrin (WCDD301, 1 µM)” value ([1]; Ephrin-A5 Fc 8 nM) was 0.1 and 0.104 and 0.11, the “Bound Ephrin (WCDD301, 0.01 µM)” value ([1]; Ephrin-A5 Fc 16 nM) was 0.18 and 0.189 and 0.209 and the “Bound Ephrin (WCDD301, 0.1 µM)” value ([1]; Ephrin-A5 Fc 16 nM) was 0.141 and 0.137 and 0.119. The “Bound Ephrin (WCDD301, 1 µM)” value ([1]; Ephrin-A5 Fc 16 nM) was 0.145 and 0.115 and 0.125, the “Bound Ephrin (WCDD301, 0.01 µM)” value ([1]; Ephrin-A5 Fc 32 nM) was 0.265 and 0.289 and 0.221 and the “Bound Ephrin (WCDD301, 0.1 µM)” value ([1]; Ephrin-A5 Fc 32 nM) was 0.21 and 0.269 and 0.243. For the same molecule, the “Bound Ephrin (WCDD301, 1 µM)” value ([1]; Ephrin-A5 Fc 32 nM) was 0.234 and 0.189 and 0.171, the “Bound Ephrin (WCDD301, 0.01 µM)” value ([1]; Ephrin-A5 Fc 64 nM) was 0.321 and 0.34 and 0.365 and the “Bound Ephrin (WCDD301, 0.1 µM)” value ([1]; Ephrin-A5 Fc 64 nM) was 0.301 and 0.29 and 0.27. For the same molecule, the “Bound Ephrin (WCDD301, 1 µM)” value ([1]; Ephrin-A5 Fc 64 nM) was 0.28 and 0.27 and 0.26, the “Bound Ephrin-A5 (ELISA signal)” value ([1]; WCDD301 0.0625 µM, Ephrin-A5 (2 nM)) was 0.1 and 0.12 and the “Bound Ephrin-A5 (ELISA signal)” value ([1]; WCDD301 0.0625 µM, Ephrin-A5 (4 nM), c4-c6) was 0.217 and 0.196 and 0.19. For the same molecule, the “Bound Ephrin-A5 (ELISA signal)” value ([1]; WCDD301 0.0625 µM, Ephrin-A5 (4 nM), third group c7-c9) was 0.23 and 0.236 and 0.246, the “Bound Ephrin-A5 (ELISA signal)” value ([1]; WCDD301 0.0625 µM, Ephrin-A5 (8 nM)) was 0.237 and 0.247 and 0.265 and the “Bound Ephrin-A5 (ELISA signal)” value ([1]; WCDD301 0.125 µM, Ephrin-A5 (2 nM)) was 0.086 and 0.108 and 0.1. For the same molecule, the “Bound Ephrin-A5 (ELISA signal)” value ([1]; WCDD301 0.125 µM, Ephrin-A5 (4 nM), c4-c6) was 0.202 and 0.18 and 0.187, the “Bound Ephrin-A5 (ELISA signal)” value ([1]; WCDD301 0.125 µM, Ephrin-A5 (4 nM), third group c7-c9) was 0.208 and 0.216 and the “Bound Ephrin-A5 (ELISA signal)” value ([1]; WCDD301 0.125 µM, Ephrin-A5 (8 nM)) was 0.236 and 0.233 and 0.234. For the same molecule, the “Bound Ephrin-A5 (ELISA signal)” value ([1]; WCDD301 0.25 µM, Ephrin-A5 (2 nM)) was 0.072 and 0.073 and 0.082, the “Bound Ephrin-A5 (ELISA signal)” value ([1]; WCDD301 0.25 µM, Ephrin-A5 (4 nM), c4-c6) was 0.148 and 0.141 and 0.169 and the “Bound Ephrin-A5 (ELISA signal)” value ([1]; WCDD301 0.25 µM, Ephrin-A5 (4 nM), third group c7-c9) was 0.201 and 0.205 and 0.203. The “Bound Ephrin-A5 (ELISA signal)” value ([1]; WCDD301 0.25 µM, Ephrin-A5 (8 nM)) was 0.222 and 0.22 and 0.212, the “AUC of competition curve” value ([1]; at 2 nM) was 0.025 ± 0.0011 AU and the “AUC of competition curve” value ([1]; at 4 nM) was 0.0469 ± 0.0014 AU. The “AUC of competition curve” value ([1]; at 6 nM) was 0.0554 ± 0.0006 AU, the “AUC of competition curve” value ([1]; at 8 nM) was 0.0617 ± 0.0011 AU and the Glucagon-stimulated glucose output ([2]; 100 nM glucagon, 3 μM WCDD301) was “did not alter glucagon-stimulated glucose output”. For the same molecule, the “Glucose output from hepatocytes (Figure 6G)” value ([2]; WCDD301 +, Glucagon +) was 15.2 and 14.9 and 17.2 and 21, the Ki ([3]; 8 nM Ephrin-A5, Figure 1C, read-out: Ki via Cheng-Prusoff equation) was 130 nM and the IC50 ([3]; 8 nM Ephrin-A5, WCDD301 0-1.6 μM, Figure 1C) was 210 nM. The “Bound Ephrin (0.1 µM-WCDD301)” value ([3]; EFN 2 nM) was 0.08 and 0.079 and 0.05, the “Bound Ephrin (0.1 µM-WCDD301)” value ([3]; EFN 4 nM) was 0.057 and 0.077 and 0.06 and the “Bound Ephrin (0.1 µM-WCDD301)” value ([3]; EFN 8 nM) was 0.119 and 0.122 and 0.09. For the same molecule, the “Bound Ephrin (0.1 µM-WCDD301)” value ([3]; EFN 16 nM) was 0.141 and 0.136 and 0.1, the “Bound Ephrin (0.1 µM-WCDD301)” value ([3]; EFN 32 nM) was 0.235 and 0.22 and 0.2 and the “Bound Ephrin (0.1 µM-WCDD301)” value ([3]; EFN 64 nM) was 0.301 and 0.295 and 0.32. The Ki ([3]; ELISA with Ephrin-A5 Fc, read-out: Ki, binding affinity for EphA4 receptor) was no more than 130 nM, the “Bound Ephrin, normalized” value [3, 4] was 51.76 and 79.12 and the “Bound Ephrin, raw data” value [3, 4] was 0.069 and 0.1. For the same molecule, the “Bound Ephrin, raw data” value ([3]; WCDD301 0.4 µM, 8 nM Ephrin-A5, Figure 1C) was 0.037 and 0.06 and 0.07, the “Bound Ephrin, raw data” value ([3]; WCDD301 0.8 µM, 8 nM Ephrin-A5, Figure 1C) was 0.02 and 0.035 and 0.04 and the “Bound Ephrin, raw data” value ([3]; WCDD301 1.6 µM, 8 nM Ephrin-A5, Figure 1C) was 0.012 and 0.009 and 0.01.
